Assays:
arterial pressure = assay: Hypotensing action: arterial pressure after injection in femoral artery; format: in vivo; details: anethtized beagle dog, 0.02-10 μg/kg
Procedure: In a femoral artery of anethtized beagle dog, each of the VIP analogues as Test Samples was injected in a dose of 0.02-10 μg/kg and measured an arterial pressure to prepare a chart showing a relation between the dose and change in blood pressure and check an amount of dose which shall cause a reduction of 15 mmHg in blood pressure.

PCA reaction = assay: Anti-allergic action: passive cutaneous anaphylaxis test (PCA reaction); format: in vivo; details: rat, injected into a vein
Procedure: A rat was immunized with egg-albumin suspended in aluminum hydroxide gel in a conventional manner and a blood letting was carried out to obtain immune serum rich in IgE.
A male rat was anethtized with ether and hairs on back were sheared to intradenally inject by 0.1 ml of the immune serum solution described in Item (1) and diluted to 5-folds, at both sides with a certain distance from a medial line on the back. After 72 hours, a mixed solution of egg albumin (5 mg/kg), 2% Evans blue and a test compound ([L-Leu^17 ]-VIP-Hse or pure native VIP) or disodium cromoglycate was injected into a vein. After 30 minutes from an occasion of PCA reaction, the experimental animal was killed and pealed-off the skin to obtain a piece of the skin dyed with the coloring matter.
The coloring matter was extracted in accordance with the method described by Katayama ["Microbio. Immunol.", Vol. 22, No. 2, pages 89 (1978)] and an amount thereof was measured at 620 nm in wave length to calculate an inhibition of the PCA reaction.

Molecule	amount of dose causing a reduction of 15 mmHg in blood pressure, relative value (native VIP = 100%) (arterial pressure) [%]	Inhibition (%) of the PCA reaction (PCA reaction; dose 0.01 mg/kg) [%]	Inhibition (%) of the PCA reaction (PCA reaction; dose 0.1 mg/kg) [%]	Inhibition (%) of the PCA reaction (PCA reaction; dose 1.0 mg/kg) [%]
CC[C@H](C)[C@H](NC(=O)[C@H](CO)NC(=O)[C@H](CC(N)=O)NC(=O)[C@H](CC(C)C)NC(=O)[C@H](Cc1ccc(O)cc1)NC(=O)[C@H](CCCCN)NC(=O)[C@H](CCCCN)NC(=O)[C@@H](NC(=O)[C@H](C)NC(=O)[C@H](CCSC)NC(=O)[C@H](CCC(N)=O)NC(=O)[C@H](CCCCN)NC(=O)[C@H](CCCNC(=N)N)NC(=O)[C@H](CC(C)C)NC(=O)[C@H](CCCNC(=N)N)NC(=O)[C@@H](NC(=O)[C@H](Cc1ccc(O)cc1)NC(=O)[C@H](CC(N)=O)NC(=O)[C@H](CC(=O)O)NC(=O)[C@@H](NC(=O)[C@H](Cc1ccccc1)NC(=O)[C@@H](NC(=O)[C@H](C)NC(=O)[C@H](CC(=O)O)NC(=O)[C@H](CO)NC(=O)[C@@H](N)Cc1c[nH]cn1)C(C)C)[C@@H](C)O)[C@@H](C)O)C(C)C)C(=O)N[C@@H](CC(C)C)C(=O)N[C@@H](CC(N)=O)C(N)=O [Native VIP, vasoactive intestinal polypeptide]	100	23	72	67
[L-Leu^17 ]-VIP-Hse-NH(CH2)9 CH3 [[L-Leu^17]-VIP-NH(CH2)9 CH3]	68			
O=C([O-])c1cc(=O)c2c(OCC(O)COc3cccc4oc(C(=O)[O-])cc(=O)c34)cccc2o1.[Na+].[Na+] [Disodium cromoglycate]		5	28	31

Reference: US5428015A, “Vasoactive intestinal polypeptide analogues and use thereof” (Sana Kagaku Kenkyusho Co., Ltd., priority 1990, dated 1995)
